Test results as given in patent US7700647B2, “Fluorinated bis (phthalic anhydride) and method for producing the same” (priority 2003, dated 2010).

Experiments:
Assay type in all cases: physicochemical
[1] = Specific surface area by Brunauer-Emmerit-Teller (BET) method; settings: Model NOVA 2000
Description: Each specific surface area of 4,4′-[(2,3,5,6-tetrafluoro-1,4-phenylene)bis(oxy)]bis(3,5,6-trifluorophthalic anhydride) obtained in the above-mentioned Preparation Example 4 and Comparative Preparation Example 2 was measured.
The specific surface area was measured using a Brunauer-Emmerit-Teller (BET) method (Model NOVA 2000 manufactured by Quantachrome Corporation).

[2] = Absorbance of acetone solution measured with a spectrophotometer (coloration); settings: wavelength 360 nm; 0.5 g dissolved in acetone to 10 g total
Description: 0.5 g of 4,4′-[(2,3,5,6-tetrafluoro-1,4-phenylene)-bis(oxy)]bis(3,5,6-trifluorophthalic anhydride) obtained in the above-mentioned Preparation Example 4 was dissolved in acetone and adjusted so as to give 10 g of the total amount of the mixture. The absorbance in the visible region of this solution was measured with a spectrophotometer (UV-3100 manufactured by Shimadzu Corporation). The absorbance of the same compound prepared in the above-mentioned Comparative Preparation Example 2 was similarly measured.

[3] = Time to become a homogeneous solution when stirred with diamine in N,N-dimethylacetamide; settings: stirred at room temperature
Description: Into a 100 milliliter—three necked flask were charged 14.51 g (24.92 mmol) of 4,4′-[(2,3,5,6-tetrafluoro-1,4-phenylene)bis(oxy)]bis(3,5,6-trifluorophthalic anhydride) obtained in Preparation Example 4, 4.48 g (24.92 mmol) of 1,3-diamino-2,4,5,6-tetrafluorobenzene and 31 g of N,N-dimethylacetamide. As this mixture was stirred at room temperature in an atmosphere of nitrogen, it took about 30 minutes before it became a homogeneous solution. By leaving standing further for 4 days, a light-yellow polyamic acid solution having a high viscosity was obtained.
Raw materials were charged into a three necked flask in the same manner as that of the above-mentioned Preparation Example 5 except for using a substance obtained in the above Comparative Preparation Example 2 instead of a substance obtained in the above Preparation Example 4 as the 4,4′-[(2,3,5,6-tetrafluoro-1,4-phenylene)bis(oxy)]bis(3,5,6-trifluorophthalic anhydride). As this mixture was stirred at room temperature as with the above-mentioned Preparation Example 5, it took about 1 hour before it became a homogeneous solution. By leaving standing further for 4 days, a yellow polyamic acid solution was obtained, but its viscosity was low. When its weight-average molecular weight was measured in the same manner as that of the above-mentioned Preparation Example 5, it was 6.04×10^4.

With O=C1OC(=O)c2c(F)c(Oc3c(F)c(F)c(Oc4c(F)c(F)c5c(c4F)C(=O)OC5=O)c(F)c3F)c(F)c(F)c21 [Preparation Example 4, 4,4′-[(2,3,5,6-tetrafluoro-1,4-phenylene)bis(oxy)]bis(3,5,6-trifluorophthalic anhydride)] as the compound, how does the Specific surface area [1] read?
Its Specific surface area is 4.403 m^2/g.

And the Molar absorption coefficient [2]?
The Molar absorption coefficient was 0.258 L/mol/cm.

What about the “Time before mixture became a homogeneous solution” value ([3]; 14.51 g with 4.48 g 1,3-diamino-2,4,5,6-tetrafluorobenzene in 31 g N,N-dimethylacetamide, nitrogen) of the same compound?
Its value is “about 30 minutes”.

With O=C1OC(=O)c2c(F)c(Oc3c(F)c(F)c(Oc4c(F)c(F)c5c(c4F)C(=O)OC5=O)c(F)c3F)c(F)c(F)c21 [Comparative Preparation Example 2, 4,4′-[(2,3,5,6-tetrafluoro-1,4-phenylene)bis(oxy)]bis(3,5,6-trifluorophthalic anhydride)] as the compound, how does the Specific surface area [1] read?
The Specific surface area was 2.869 m^2/g.

And the Molar absorption coefficient [2]?
Its Molar absorption coefficient is 0.672 L/mol/cm.

And the “Time before mixture became a homogeneous solution” value ([3]; same manner as Preparation Example 5, N,N-dimethylacetamide)?
Its value is “about 1 hour”.
